Results on 27 molecules are retold here after US8563542B2 (Cyclacel Limited, priority 2007, dated 2013).

pIC50, pKi: −log10 of the molar value.

PLK1, sequence (P53350 whole entry): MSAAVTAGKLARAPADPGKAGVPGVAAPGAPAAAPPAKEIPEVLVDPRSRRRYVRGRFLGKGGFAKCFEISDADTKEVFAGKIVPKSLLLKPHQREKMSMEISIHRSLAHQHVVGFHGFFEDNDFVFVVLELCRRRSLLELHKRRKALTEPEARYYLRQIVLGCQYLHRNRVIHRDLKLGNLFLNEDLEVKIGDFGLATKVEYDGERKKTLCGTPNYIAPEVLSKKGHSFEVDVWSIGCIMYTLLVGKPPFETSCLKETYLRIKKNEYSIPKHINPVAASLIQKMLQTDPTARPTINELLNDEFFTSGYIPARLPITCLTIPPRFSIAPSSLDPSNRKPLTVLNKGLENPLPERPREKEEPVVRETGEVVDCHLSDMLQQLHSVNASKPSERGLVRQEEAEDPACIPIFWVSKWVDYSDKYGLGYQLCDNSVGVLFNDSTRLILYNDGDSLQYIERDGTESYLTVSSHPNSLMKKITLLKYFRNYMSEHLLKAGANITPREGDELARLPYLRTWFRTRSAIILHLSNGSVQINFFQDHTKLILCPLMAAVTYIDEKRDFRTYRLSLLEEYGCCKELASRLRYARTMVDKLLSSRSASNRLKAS

The first test has as its target PLK1 (Homo sapiens, UniProt P53350). Description: PLK1 protein kinase assay (CDC25C phosphorylation, [γ-32P]-ATP). The test is classed as biochemical. The note with it: Table 1; read-out: PLK1 IC50.
For the molecule `COc1cc(C(=O)O)ccc1Nc1ncc2c(n1)N(C1CCCCC1)C(C)CC(=O)N2` (centres unmarked) [compound 5, 4-(9-Cyclohexyl-8-methyl-6-oxo-6,7,8,9-tetrahydro-5H-pyrimido[4,5-b][1,4]diazepin-2-ylamino)-3-methoxy-benzoic acid], the pIC50 (usually the IC50 on a negative log10 scale, so that one unit is a factor of ten) was over 5.00.

Staying with this test, now noted: Table 2, PLK1 IC50; class symbols; read-out: PLK1 IC50.
Take `COc1cc(C(=O)NC2CCN(C(=O)c3ccccc3)CC2)ccc1Nc1ncc2c(n1)N(C1CCCC1)CCC(=O)N2C` [compound 212, N-(1-Benzoyl-piperidin-4-yl)-4-(9-cyclopentyl-5-methyl-6-oxo-6,7,8,9-tetrahydro-5H-pyrimido[4,5-b][1,4]diazepin-2-ylamino)-3-methoxy-benzamide]: the pIC50 is over 6.00.
With `COc1cc(C(=O)NC2CCN(C)CC2)ccc1Nc1ncc2c(n1)N(CC1CC1)CCC(=O)N2C` [compound 65, 4-(9-Cyclopropylmethyl-5-methyl-6-oxo-6,7,8,9-tetrahydro-5H-pyrimido[4,5-b][1,4]diazepin-2-ylamino)-3-methoxy-N-(1-methyl-piperidin-4-yl)-benzamide], the pIC50 is over 7.00.
As to `COc1cc(C(=O)NC(C)(C)CN2CCCC2)ccc1Nc1ncc2c(n1)N(C1CCCC1)CC1(CC1)C(=O)N2C` [compound 250, 4-(9-Cyclopentyl-5-methyl-6-oxo-6,7,8,9-tetrahydro-5H-pyrimido[4,5-b][1,4]diazepin-3,1′-cyclopropane-2-ylamino)-N-(1,1-dimethyl-2-pyrrolidin-1-yl-ethyl)-3-methoxy-benzamide], the pIC50 was over 6.00.
`COc1cc(C(=O)NC2CCN(C)CC2)ccc1Nc1ncc2c(n1)N(C)CCC(=O)N2C` [compound 111, 4-(5,9-Dimethyl-6-oxo-6,7,8,9-tetrahydro-5H-pyrimido[4,5-b][1,4]diazepin-2-ylamino)-3-methoxy-N-(1-methyl-piperidin-4-yl)-benzamide]: the pIC50 is over 6.00.
On to `COc1ccc(N2CCC(=O)N(C)c3cnc(Nc4ccc(C(=O)NC5CN6CCC5CC6)cc4OC)nc32)cc1` (centres unmarked) [compound 317, N-(1-Aza-bicyclo[2.2.2]oct-3-yl)-3-methoxy-4-[9-(4-methoxy-phenyl)-5-methyl-6-oxo-6,7,8,9-tetrahydro-5H-pyrimido[4,5-b][1,4]diazepin-2-ylamino]-benzamide], for which the pIC50 is over 6.00.
The same measure, in the same setting: the result for `COc1cc(C(=O)NC2CN3CCC2CC3)ccc1Nc1ncc2c(n1)N(C1CCCC1)CC(C)(C)C(=O)N2C` (racemic) [Compound 194, (±)-4-(9-cyclopentyl-5,7,7-trimethyl-6-oxo-6,7,8,9-tetrahydro-5H-pyrimido[4,5-b][1,4]diazepin-2-ylamino)-3-methoxy-N-(quinuclidin-3-yl)benzamide] reads over 7.00.
Regarding `COc1cc(C(=O)NC2CCN(C(C)C)CC2)ccc1Nc1ncc2c(n1)N(C1CCCC1)CCC(=O)N2C` [compound 344, 4-(9-Cyclopentyl-5-methyl-6-oxo-6,7,8,9-tetrahydro-5H-pyrimido[4,5-b][1,4]diazepin-2-ylamino)-N-(1-isopropyl-piperidin-4-yl)-3-methoxy-benzamide], the pIC50 was over 7.00.
Still for that read-out and setting: the result for `COc1cc(C(=O)NCCO)ccc1Nc1ncc2c(n1)N(C1CCCC1)CC1(CC1)C(=O)N2C` [compound 188, 4-(9-Cyclopentyl-5-methyl-6-oxo-6,7,8,9-tetrahydro-5H-spiro[pyrimido[4,5-b][1,4]diazepin-3,1′-cyclopropane]-2-ylamino)-N-(2-hydroxy-ethyl)-3-methoxy-benzamide] reads over 7.00; that for `COc1cc(C(=O)N(CCO)CCO)ccc1Nc1ncc2c(n1)N(C1CCCC1)CCC(=O)N2C` [compound 167, 4-(9-Cyclopentyl-5-methyl-6-oxo-6,7,8,9-tetrahydro-5H-pyrimido[4,5-b][1,4]diazepin-2-ylamino)-N,N-bis-(2-hydroxy-ethyl)-3-methoxy-benzamide], over 5.00; that for `COc1cc(C(=O)NC2CCN(C)CC2)ccc1Nc1ncc2c(n1)N(CC(C)C)CCC(=O)N2C` [compound 302, 4-(9-Isobutyl-5-methyl-6-oxo-6,7,8,9-tetrahydro-5H-pyrimido[4,5-b][1,4]diazepin-2-ylamino)-3-methoxy-N-(1-methyl-piperidin-4-yl)-benzamide], over 6.00.
As for `COc1cc(C(=O)NCc2ccncc2)ccc1Nc1ncc2c(n1)N(C1CCCC1)CC(C)(C)C(=O)N2C` [compound 199, 4-(9-Cyclopentyl-5,7,7-trimethyl-6-oxo-6,7,8,9-tetrahydro-5H-pyrimido[4,5-b][1,4]diazepin-2-ylamino)-3-methoxy-N-pyridin-4-yl-ylmethyl-benzamide], the pIC50 was over 7.00.
As for `COc1ccc(N2CCC(=O)N(C)c3cnc(Nc4ccc(C(=O)NC5CCN(Cc6ccccc6)CC5)cc4OC)nc32)cc1` [compound 316, N-(1-Benzyl-piperidin-4-yl)-3-methoxy-4-[9-(4-methoxy-phenyl)-5-methyl-6-oxo-6,7,8,9-tetrahydro-5H-pyrimido[4,5-b][1,4]diazepin-2-ylamino]-benzamide], the pIC50 is over 6.00.
On the same count and under the same terms, the result for `COc1cc(C(=O)NCC2CCN(C)CC2)ccc1Nc1ncc2c(n1)N(CC1CC1)CCC(=O)N2C` [compound 242, 4-(9-Cyclopropylmethyl-5-methyl-6-oxo-6,7,8,9-tetrahydro-5H-pyrimido[4,5-b][1,4]diazepin-2-ylamino)-3-methoxy-N-(1-methyl-piperidin-4-ylmethyl)-benzamide] reads over 6.00; that for `COc1ccc(C(=O)NCC2CCN(C)CC2)cc1Nc1ncc2c(n1)N(C1CCCC1)CCC(=O)N2C` [compound 235, 3-(9-Cyclopentyl-5-methyl-6-oxo-6,7,8,9-tetrahydro-5H-pyrimido[4,5-b][1,4]diazepin-2-ylamino)-4-methoxy-N-(1-methyl-piperidin-4-ylmethyl)-benzamide], over 6.00.
Turning to `COc1ccc(C(=O)NCc2ccco2)cc1Nc1ncc2c(n1)N(C1CCCC1)CCC(=O)N2C` [compound 273, 3-(9-Cyclopentyl-5-methyl-6-oxo-6,7,8,9-tetrahydro-5H-pyrimido[4,5-b][1,4]diazepin-2-ylamino)-N-furan-2-ylmethyl-4-methoxy-benzamide], the pIC50 is over 6.00.
As to `COc1cc(C(=O)NC2CC(C)(C)N(C)C(C)(C)C2)ccc1Nc1ncc2c(n1)N(C1CCCC1)CCC(=O)N2C` [compound 162, 4-(9-Cyclopentyl-5-methyl-6-oxo-6,7,8,9-tetrahydro-5H-pyrimido[4,5-b][1,4]diazepin-2-ylamino)-3-methoxy-N-(1,2,2,6,6-pentamethyl-piperidin-4-yl)-benzamide], the pIC50 was over 7.00.
For `COc1cc(C(=O)NC2CCCC2)ccc1Nc1ncc2c(n1)N(C1CCCC1)CC1(CC1)C(=O)N2C` [compound 260, N-Cyclopentyl-4-(9-Cyclopentyl-5-methyl-6-oxo-6,7,8,9-tetrahydro-5H-spiro[pyrimido[4,5-b][1,4]diazepin-3,1′-cyclopropane]-2-ylamino)-3-methoxy-benzamide], the pIC50 is over 7.00.
As to `CCN(CC)CCNC(=O)c1ccc(OC)c(Nc2ncc3c(n2)N(C2CCCC2)CCC(=O)N3C)c1` [compound 231, 3-(9-Cyclopentyl-5-methyl-6-oxo-6,7,8,9-tetrahydro-5H-pyrimido[4,5-b][1,4]diazepin-2-ylamino)-N-(2-diethylamino-ethyl)-4-methoxy-benzamide], the pIC50 was over 6.00.
As for `COc1cc(C(=O)NC2CCN(Cc3ccccc3)CC2)ccc1Nc1ncc2c(n1)N(C1CCCC1)CC(C)(C)C(=O)N2C` [compound 197, N-(1-Benzyl-piperidin-4-yl)-4-(9-cyclopentyl-5,7,7-trimethyl-6-oxo-6,7,8,9-tetrahydro-5H-pyrimido[4,5-b][1,4]diazepin-2-ylamino)-3-methoxy-benzamide], the pIC50 was over 7.00.
Regarding `COc1cc(C(=O)NC2CN3CCC2CC3)ccc1Nc1ncc2c(n1)N(C1CCCC1)CC1(CC1)C(=O)N2C` (racemic) [Compound 186, (±)-4-(9′-cyclopentyl-5′-methyl-6′-oxo-5′,6′,8′,9′-tetrahydrospiro[cyclopropane-1,7′-pyrimido[4,5-b][1,4]diazepine]-2′-ylamino)-3-methoxy-N-(quinuclidin-3-yl)benzamide], the pIC50 is over 7.00.
Same read-out and setting: the result for `CNC(=O)c1cccc(Nc2ncc3c(n2)N(C2CCCC2)CCC(=O)N3C)c1C` [compound 141, 3-(9-Cyctopentyl-5-methyl-6-oxo-6,7,8,9-tetrahydro-5H-pyrimido[4,5-b][1,4]diazepin-2-ylamino)-2,N-dimethyl-benzamide] reads over 5.00; that for `COc1cc(C(=O)NC2CCN(Cc3ccccc3)CC2)ccc1Nc1ncc2c(n1)N(CC1CC1)CCC(=O)N2C` [compound 241, N-(1-Benzyl-piperidin-4-yl)-4-(9-cyclopropylmethyl-5-methyl-6-oxo-6,7,8,9-tetrahydro-5H-pyrimido[4,5-b][1,4]diazepin-2-ylamino)-3-methoxy-benzamide], over 6.00.

Still in this test, the particulars now being: Table 3; read-out: PLK1 IC50.
`COc1cc(C(=O)N[C@H]2CC[C@H](N3CCN(CC4CC4)CC3)CC2)ccc1Nc1ncc2c(n1)N(C1CCCC1)CC1(CCC1)C(=O)N2C` [Compound 377, 4-(9′-cyclopentyl-5′-methyl-6′-oxo-5′,6′,8′,9′-tetrahydrospiro[cyclobutane-1,7′-pyrimido[4,5-b][1,4]diazepine]-2′-ylamino)-N-((trans)-4-(4-(cyclopropylmethyl)piperazin-1-yl)cyclohexyl)-3-methoxybenzamide]: the pIC50 is over 7.00.
The same measure, in the same setting: the result for `COc1cc(C(=O)NC2CN3CCC2CC3)ccc1Nc1ncc2c(n1)N(C1CCCC1)CC(C)(C)C(=O)N2C` (racemic) [Compound 194, (±)-4-(9-cyclopentyl-5,7,7-trimethyl-6-oxo-6,7,8,9-tetrahydro-5H-pyrimido[4,5-b][1,4]diazepin-2-ylamino)-3-methoxy-N-(quinuclidin-3-yl)benzamide] reads over 7.00; that for `COc1cc(C(=O)NN2CCOCC2)ccc1Nc1ncc2c(n1)N(C1CCCC1)CC1(CC1)C(=O)N2C` [Compound 376, 4-(9′-Cyclopentyl-5′-methyl-6′-oxo-5′,6′,8′,9′-tetrahydrospiro[cyclopropane-1,7′-pyrimido[4,5-b][1,4]diazepine]-2′-ylamino)-3-methoxy-N-morpholinobenzamide], over 7.00; that for `COc1cc(C(=O)NC2CN3CCC2CC3)ccc1Nc1ncc2c(n1)N(C1CCCC1)CC1(CC1)C(=O)N2C` (racemic) [Compound 186, (±)-4-(9′-cyclopentyl-5′-methyl-6′-oxo-5′,6′,8′,9′-tetrahydrospiro[cyclopropane-1,7′-pyrimido[4,5-b][1,4]diazepine]-2′-ylamino)-3-methoxy-N-(quinuclidin-3-yl)benzamide], over 7.00.

The test is the same for the next values; noted with them: Table 4; read-out: PLK1 IC50.
With `COc1cc(C(=O)NC2CCN(C)CC2)ccc1Nc1ncc2c(n1)N(C1CCCC1)CC1(CC1)C(=O)N2C` [WO 2007/095188 [I-76], reference compound], the pIC50 is over 7.00.

Still in this test, the particulars now being: Table 6.
As for `COc1cc(C(=O)NN2CCCC2)ccc1Nc1ncc2c(n1)N(C1CCCC1)CC1(CC1)C(=O)N2C` [Example [I-253] of WO 07/095188, reference compound], the pKi (usually −log10 of the Ki, conventionally taken in molar units) is over 8.00.
